The test system of this series is BLM-induced pulmonary fibrosis in C57BL/6J mice. The series is described as follows: Bleomycin (BLM)-induced pulmonary fibrosis model, Example 4. The series is classed as in vivo. From the text: The bleomycin model of idiopathic fibrosis (IPF) is a well-characterized and currently an extensively used animal model of Interstitial lung disease (ILD) due to its: i) ability to reproduce many aspects of the disease, ii) good reproducibility, and iii) ease of induction. Overall, studies using the bleomycin model have identified many of the cellular and molecular mechanisms now recognized as being important in pathogenesis of IPF, as well as novel therapies for ILDs. The model is based on intratracheal administration of bleomycin in mice that results in alveolar epithelial damage, alveolar inflammation and fibrosis within a period of 21 days. Consequently, the model allows therapeutic testing of novel agents within a reasonably short period of time (Liu T eta al, Methods Mol Biol. 2017;1627:27-42).
Test Article & Formulations Compound B (Synthetica A/S, Norway) was formulated for subcutaneous administration in a nano-emulsion containing 2 mg/ml Compound B, 2 mg/ml MCT oil (Lipoid), 2 mg/ml Polysorbate 80 (Fluka) and sodium citrate buffer 10 mM (pH 7). The final solution was sterilized by filtration and saturated with Argon 5.0 AGA prior to aliquoting in 10 ml tubes stored at −20° C. till further use. A separate Polysorbate 80- and sodium citrate buffer-based vehicle solution without Compound B and MCT oil was also prepared, sterilized, aliquoted and stored, serving as the subcutaneous vehicle control used in the UUO animal study. Nintedanib (approved and commercialized for IPF under the brand names Ofev/Vargatef) was used as a positive control. The compound was purchased from Chemexpress Co., Ltd. (China) and suspended in 1% methylcellulose.
Six-week-old female C57BL/6J mice were obtained from Japan SLC, Inc. (Japan). Animals were kept in an animal room facility at a temperature of 23±2° C., humidity of 45±10%, under a 12-hour light and dark cycle (light from 8:00 to 20:00). A high pressure of 20±4 Pa was kept in the experimental room to prevent contamination. The animals were housed in TPX cages (CLEA Japan; maximum of 6 mice per cage) and fed with a sterilized normal diet (CE-2; CLEA Japan, Japan) provided ad libitum, being placed in a metal lid on the top of the cage. Sterilized Paper-Clean (Japan SLC) was used for bedding and was replaced once a week. Pure water was provided ad libitum from a water bottle equipped with a rubber stopper and a sipper tube. […]
The viability, clinical signs and behavior were monitored every day. Body weight was recorded daily after the day of starting the BLM administration (Day 0). […]
To quantify lung hydroxyproline content, frozen whole left lung samples were processed by an acid hydrolysis method as follows. […]

For `COC(=O)c1ccc2c(c1)NC(=O)/C2=C(\Nc1ccc(N(C)C(=O)CN2CCN(C)CC2)cc1)c1ccccc1` [Nintedanib], under “100 mg/kg per os daily Day 7-20, Day 21, % of baseline Day 0, mean ± SD”, the “Body weight changes at sacrifice” value turned out to be 103 ± 5%. Moreover, the “Lung Hydroxyproline” value (100 mg/kg per os daily Day 7-20, Day 21, mean ± SD) is 50.6 ± 14.5 μg/ml left lung. Under “Masson's Trichrome, 100 mg/kg per os daily Day 7-20, mean ± SD”, the Ashcroft score is on record as 1.6 ± 1.0. Besides, the “mice found dead before reaching Day 21” value (per treatment group of 12, treatment Day 7-20) was “three out of 12”.

For the origin of these results see patent publication US20220257531A1, “COMPOSITIONS AND METHODS FOR TREATMENT OF A FIBROTIC DISEASE” (Avexxin AS, priority 2017, published 2022).
